Assays:
HO-1 protein = settings: after injection of autologous arterial blood; compound i.v. 2 days; basilar arterial walls, day 2
From the text: The same animal model as in Example 1 was used to study changes in HO-1 protein expression level after the same treatment as shown in Example 1. The changes in protein expression level were detected by Coomassie staining and Western blotting, as described in the abovementioned reference. In this figure, the upper and lower panels show the results of Coomassie staining and Western blotting, respectively. Each of the lanes shown in FIG. 2 has the same definition as the corresponding sample in FIG. 1.

HO-1 mRNA = settings: blood i.c. + compound i.v. 1 mg/kg/min continuously for 2 days; basilar arterial walls, day 2; vs blood i.c.+saline i.v.
Experimental: The preparation of rat cerebral vasospasm model and the determination of HO-1 mRNA expression level were performed according to a documented method (see The Journal of Clinical Investigation, Vol. 104, No. 1, July 1999).
Each single hemorrhage model was injected with 0.5 ml autologous arterial blood into its cisterna magna. […] After administration, the level of mRNA expressed in basilar arterial walls was determined on day 2 using a quantitative RT-PCR technique.
It is for this reason that the mRNA expression level was determined on day 2.
All data were expressed as mean±SEM. The expression level of HO-2 was used as a denominator in calculating the ratio because the expression level of HO-2 was not assumed to change appreciably in this model and therefore, when used as a denominator, would enable changes in HO-1 expression level to be objectively evaluated while ignoring individual differences. […] The data were statistically processed according to variance analysis. A single asterisk (*) denotes a statistically significant difference from “saline i.c.” at p<0.05 level and two asterisks (**) denote a statistically significant difference from “blood i.c.+saline i.v.” at p<0.01 level.

[1] = tested on: delayed cerebral vasospasm
Experimental: The same model as in Example 1 was used to study changes over time in basilar artery diameter. The determination of basilar artery diameter was performed as described in the above-mentioned reference. That is, the diameter was measured angiographically on days 1 to 7 and expressed as a % change from the original diameter (% change before treatment was set to 0).
All data were expressed as mean±SEM.
The data was statistically processed such that intragroup comparison was performed by paired t-test and intergroup comparison was performed according to variance analysis.

## CC(CNC(=O)c1cccnc1)NC(=O)c1cccnc1 (stereo not shown) [1,2-bis(nicotinamide)propane]
HO-1 protein
  HO-1 protein induction: causes or enhances HO-1 protein induction
HO-1 mRNA
  HO-1 mRNA expression level (HO-1/HO-2 ratio): significant increase in HO-1 mRNA expression level
[1]; blood i.c. + compound i.v. continuously for 7 days, angiography days 1 to 7
  delayed cerebral vasospasm (% change in basilar artery diameter): significant amelioration of delayed cerebral vasospasm
[1]; saline i.c. + compound i.v. continuously for 7 days
  diameter of cerebral blood vessels in the absence of hemorrhage: not affected

Reference: patent US20030032655A1, “Heme oxygenase-1 inducers or induction enhancers” (priority 2000, published 2003)
